Results published in patent US7910560B2, “Method for increasing breast meat yield in poultry” (Arkion Life Sciences LLC, priority 2003, dated 2011).
Marks after values point to notes of the source that are not given here.

Assays:
[1] = tested on: commercial broilers; assay: Natamycin in feeds formulated for portion-control processed broilers (Example 1); assay type: in vivo, Gallus domesticus
Excerpt: (§1) Mixed feed was stored in 50 lb capacity feed sacks. Feed was stored by treatment and treatment diets were further identified with color-codes. After each diet had been mixed, three composite samples (approximately 1 lb each) were collected. The amount of feed mixed for each treatment was as follows: [table] Normal, healthy day-old chicks were obtained from a commercial hatchery. Birds were transported from the hatchery location to Denver, Colo. via commercial air freight. Ground transportation was used to transport chicks from Denver to Wellington, Colo. The study started with 1200 commercial broilers of the species Gallus domesticus, the birds being placed into pens (30 male/30 female per pen). Treatments were assigned to pens using randomized block design. The research facility was divided into 10 blocks of 2 pens each. Birds were assigned randomly according to CQR SOPs. [table] Feed was provided ad libitum throughout the study via two hanging 17-inch diameter tube feeders per pen. A chick feeder tray was also placed in each pen for approximately the first 6 days. All birds were placed on their respective treatment diets upon receipt (approx. 0 days of age). All feed added and removed from pens was weighed and recorded. All experimental diet changes were conducted at the same time for both treatment groups.

[2] = tested on: commercial broilers; assay: Natamycin in feeds formulated for growing large broilers (Example 2); assay type: in vivo, Gallus domesticus
Excerpt: as §1, with “1400” for “1200”, “domesticus.” for “domesticus, the birds being placed into pens (30 male/30 female per pen).”, “SOPs.” for “SOPs. [table]”

[3] = tested on: commercial broilers; assay: Natamycin feed additive in diets manufactured using a gap extender (Example 3); assay type: in vivo, Gallus domesticus
Excerpt: as §1, with “The natamycin test article” for “Mixed feed”, “mixed into the treatment” for “stored in 50 lb capacity feed sacks. Feed was stored”, “the ConAgra Poultry Company. Once” for “treatment and treatment diets were further identified with color-codes. After”, “1140” for “1200”, “domesticus.” for “domesticus, the birds being placed into pens (30 male/30 female per pen).”

[4] = cited from earlier work
[5] = 49 days, 1 lbs/ton natamycin in feed ad libitum

C[C@@H]1C/C=C/C=C/C=C/C=C/[C@H](O[C@@H]2O[C@H](C)[C@@H](O)[C@H](N)[C@@H]2O)C[C@@H]2O[C@](O)(C[C@@H](O)C[C@H]3O[C@@H]3/C=C/C(=O)O1)C[C@H](O)[C@H]2C(=O)O [Natamycin, natamycin]
Breast Weight, Treatment Total ([1]; 43 days, 1 lbs/ton natamycin in feed ad libitum, 230 birds): 77.485
% Breast, Treatment Average ([1]; 43 days, 1 lbs/ton natamycin in feed ad libitum, statistically extremely significant): 22.83** %
Breast Weight, Treatment Average ([1]; 43 days, 1 lbs/ton natamycin in feed ad libitum, statistically very significant): 0.337*
Breast weight and breast yield versus control ([1]; over a 43 day period, statistically significant): increased breast weight and breast yield
Breast Weight, Treatment Total ([2]; 61 days, 1 lbs/ton natamycin in feed ad libitum, 230 birds printed): 141.840
% Breast, Treatment Average ([2]; 61 days, 1 lbs/ton natamycin in feed ad libitum, statistically extremely significant): 21.72** %
Breast Weight, Treatment Average ([2]; 61 days, 1 lbs/ton natamycin in feed ad libitum, statistics not calculated): 0.505
Breast weight and breast yield versus control ([2]; over a 61 day period, breast yield increase statistically significant): increased breast weight and breast yield
Breast Weight, Bird Average [3, 5]: 0.465
Breast Weight, Pen Average [3, 5]: 8.315
% Breast, Pen Average ([3]; 49 days, 1 lbs/ton natamycin in feed ad libitum, statistically significant): 23.31* %
Breast weight and breast yield versus control ([3]; over a 49 day period, breast yield increase statistically significant): increased breast weight and breast yield
Solubility in water [4]: 0.005-0.010 weight/weight percent
